According to US20080004271A1, “Inhibitors of TNFalpha, PDE4 and B-RAF, compositions thereof and methods of use therewith” (priority 2006, published 2008):

Tests used:
V600E mutant B-RAF = molecular target: T1, V600E mutant B-RAF (Homo sapiens, UniProt P15056, V600E); assay: V600E Mutant B-RAF 33P Assay; format: biochemical
T1 construct: purchased Upstate
Description: Substrate (HIS-MEK1 K97M) is prepared by Celgene Corp. as described above.
Test compound is diluted in 100% DMSO (600 μM). […] Substrate mixture is prepared as 7.5 μM HIS-MEK1 K97M in assay buffer. ATP mixture is prepared as 300 μM ATP, 75 mM MgCl2, 0.05 μCi/μl ^33P ATP in assay buffer.
In a 96 well assay plate (Falcon Polylpropylene well U-bottom), the following are added to each well: 2.5 μl of test compound solution (serial dilutions), 20 μl of substrate mixture and 17.5 μl of enzyme mixture. The plate is incubated for at least 15 minutes. 10 μl of ATP mixture is added and the plate is incubated at room temperature for about 60 minutes. 80 μl of 12.5% TCA is added to each well, and the plate is incubated for at least 20 minutes. The contents of the plate is transferred to a glass fiber filter plate (Millipore) using a Packard Harvester (washing 10× with 1×PBS). 50 μl of Scintillation-20 fluid is added to each well. The plate is read using a Packard TopCount.

pMEK1/2 in A375 cells = assay: A375 pMEK1/2 Meso Scale Assay; format: cell-based; details: Homo sapiens, A-375, 2 h; A375 pMEK1/2, about two hours incubation
Description: On the afternoon of Day 1, cells are plated in a 96-well flat bottom cell culture plate at about 50,000 cells/well in a volume of 100 μl. On the morning of Day 2, serial dilutions of test compound(s) are added to the plate. The plate is incubated for about two hours at 37° C., […]. The plate is blocked about five minutes before the compound incubation step is completed by adding 150 μl/well of MSD (Meso Scale Discovery) blocking solution-A (prepared with 20 ml 1× Tris wash buffer (25 ml of 10× Tris buffer+225 ml deionized water) and 600 mg MSD blocker A) and incubating with vigorous shaking at room temperature for one hour. The plate is washed 4× with 1× Tris wash buffer.
Cells are harvested and lysates prepared by removing medium, washing 1× with ice-cold PBS (calcium and magnesium free), adding 50 μl/well Complete Tris buffer and incubating with shaking at 4° C. for one hour. Lysate samples (25 μl) are added to an MSD Multi-Spot plate and incubated with vigorous shaking at room temperature for two hours. The plate is washed 1× with Tris wash buffer.
25 μl/well of […] detection antibody (Anti-pMEK1/2 antibody; SULFO-TAG labeled, light sensitive) in 3 ml of cold antibody dilution buffer (1 ml blocking solution-A, 1.82 ml 1× Tris wash buffer, 150 μl 2% MSD blocker D-M and 30 μl 10% MSD blocker D-R) is added and the plate is incubated with vigorous shaking at room temperature in the dark for one hour. The plate is washed 1× with Tris wash buffer.
150 μl/well of 1× MSD Read buffer T (with surfactant) is added to the plate and the plate is read using a MSD Sector instrument.

A375 cells = assay: Alamar Blue Viability Assay; format: cell-based; details: Homo sapiens, A-375, 72 h, 3 days
Description: A375 cells (ATCC # CRL-1619; Passage 4˜15; doubling time is roughly 18 hours) are used. Culture medium is DMEM (high glucose, with L-glutamine)+10% FBS+Pen/Strep. Cells are passed every three days at 1:20.
200 μl of medium only is added into all wells along the edges of a 96-well flat bottom plate and 180 μl of cell suspension (containing 1,000 cells) per well is added into the plate with a Low Evaporation Lid (Costar Cat # 3595). The cells are cultured overnight. Compounds and controls are diluted according to standard compound dilution protocol described below. From 30 mM stock solution, 10 mM, 3 mM, 1 mM, and 0.3 mM solutions in 100% DMSO are prepared using the following serial dilution protocol:
The 30, 10, 3, 1 and 0.3 mM solutions are diluted 1:50 (DMSO:medium) by adding 4 μl of each to 196 μl of culture medium. This yields 600 μM, 200 μM, 60 μM, 20 μM, and 6 μM secondary stock solutions. 4 μl of DMSO are added to 196 μl medium for the DMSO control as well. 20 μl of compound dilutions, including the DMSO control locations (Row G, Columns 2-10 are DMSO control wells), are added in triplicate to the cells in the 96-well plate using a repeat pipettor (see plate layout below). This yields final concentrations of 60 μM, 20 μM, 6 μM, 2 μM, and 0.6 μM containing 0.2% DMSO in each well. The plate is gently tapped to evenly distribute compound within the well. The plate is incubated at 5% CO2 at 37° C. for 3 days.
20 μl of Alamar Blue (Biosource #DAL-1100) is added to each well. The plate is incubated in 5% CO2 incubator for 4 hours. Fluorescence is measured with excitation wavelength at 530 nm and emission wavelength at 590 nm using a Victor 2 multilabel plate reader (Perkin Elmer). Data is saved with plate format as a Text file and entered into ActivityBase (Cell-based SAR; Prolif-Alamar; MTT 5 plates unfixed fit) to calculate the percent of DMSO values for each compound set of triplicate wells and IC50 curves are plotted.

T1 sequence (P15056 whole entry V600E): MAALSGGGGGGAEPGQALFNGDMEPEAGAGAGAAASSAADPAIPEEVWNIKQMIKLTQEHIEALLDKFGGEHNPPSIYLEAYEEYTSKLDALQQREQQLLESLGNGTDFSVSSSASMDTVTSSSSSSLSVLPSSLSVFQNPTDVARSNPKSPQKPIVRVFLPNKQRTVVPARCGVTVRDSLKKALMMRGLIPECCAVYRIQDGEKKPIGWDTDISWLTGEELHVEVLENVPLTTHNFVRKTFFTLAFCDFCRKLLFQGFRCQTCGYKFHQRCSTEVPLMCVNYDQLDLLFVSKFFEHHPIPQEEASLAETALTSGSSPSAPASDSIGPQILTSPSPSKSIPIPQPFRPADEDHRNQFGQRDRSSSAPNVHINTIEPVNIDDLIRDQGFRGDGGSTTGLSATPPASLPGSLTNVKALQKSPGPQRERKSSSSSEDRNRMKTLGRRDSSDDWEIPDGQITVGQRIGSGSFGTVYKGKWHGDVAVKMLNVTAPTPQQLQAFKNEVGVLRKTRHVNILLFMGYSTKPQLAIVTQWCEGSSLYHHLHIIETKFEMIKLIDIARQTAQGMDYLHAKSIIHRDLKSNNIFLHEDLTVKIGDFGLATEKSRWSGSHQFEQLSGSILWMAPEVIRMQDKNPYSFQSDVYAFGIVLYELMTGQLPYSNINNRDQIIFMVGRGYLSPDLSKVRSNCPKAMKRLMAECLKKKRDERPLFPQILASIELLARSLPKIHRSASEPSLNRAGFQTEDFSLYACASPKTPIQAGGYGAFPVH

Row | Compound | IC50 (V600E mutant B-RAF) [µM] | IC50 (pMEK1/2 in A375 cells) [µM] | IC50 (A375 cells) [µM]
1 | CC(C)c1nc(-c2ccc(Cl)c(Cl)c2)c2c(N)c(C(N)=O)sc2n1 [Example 238] | 0.1 to 10 | 10 to 20 | 
2 | NC(=O)c1sc2ncnc(-c3cc(O)cc(Cl)c3)c2c1N [Example 280] | 0.1 to 10 | 0.1 to 10 | 0.1 to 10
3 | Cc1ccc(-c2nc(NC3CC3)nc3sc(C(N)=O)c(N)c23)cc1 [Example 265] | 0.1 to 10 | 20 to 30 | 20 to 30
4 | NC(=O)c1sc2nc(NC3CC3)nc(-c3ccc4c(c3)OCC4)c2c1N [Example 162] | 0.1 to 10 | 0.1 to 10 | 10 to 20
5 | NC(=O)c1sc2nc(NCC(O)CO)nc(-c3ccc(Cl)c(Cl)c3)c2c1N (stereo not drawn) [Example 220] | 0.1 to 10 | 10 to 20 | 20 to 30
6 | CC(C)(CN)CNc1nc(-c2ccc(Cl)c(Cl)c2)c2c(N)c(C(N)=O)sc2n1 [Example 253] | 0.1 to 10 | 0.1 to 10 | 0.1 to 10
7 | Cc1ccc(-c2nc(NC(C)(C)CO)nc3sc(C(N)=O)c(N)c23)cc1O [Example 274] | 0.1 to 10 | 0.1 to 10 | 0.1 to 10
8 | CC[C@@H](CO)Nc1nc(-c2cncc(OC)c2)c2c(N)c(C(N)=O)sc2n1 [Example 175] | 0.1 to 10 | 0.1 to 10 | 10 to 20
9 | C[C@@H](O)[C@@H](C)Oc1nc(-c2ccc(Cl)c(Cl)c2)c2c(N)c(C(N)=O)sc2n1 [Example 214] | 0.1 to 10 | 0.1 to 10 | 0.1 to 10
10 | CC[C@H](CO)Nc1nc(-c2cncc(OC)c2)c2c(N)c(C(N)=O)sc2n1 [Example 174] | 0.1 to 10 | 0.1 to 10 | 0.1 to 10
11 | C[C@@H](CO)Cc1nc(-c2ccc(Cl)c(Cl)c2)c2c(N)c(C(N)=O)sc2n1 [Example 164] |  | 10 to 20 | 20 to 30
12 | NC(=O)c1sc2nc(NC3CC3)nc(-c3cccc(NC(=O)Nc4ccc(C(F)(F)F)cc4)c3)c2c1N [Example 250] |  | 0.1 to 10 | 0.1 to 10
13 | CC[C@H](CO)Nc1nc(-c2ccc(Cl)c(Cl)c2)c2c(N)c(C(N)=O)sc2n1 [Example 208] | 0.1 to 10 | 0.1 to 10 | 10 to 20
14 | CC[C@H](CO)Nc1nc(-c2cccc(NC(=O)Nc3ccc(C(F)(F)F)cc3)c2)c2c(N)c(C(N)=O)sc2n1 [Example 258] | 0.1 to 10 | 0.1 to 10 | 0.1 to 10
15 | NC(=O)c1sc2nc(N[C@@H]3CCNC3)nc(-c3ccc(Cl)c(Cl)c3)c2c1N [Example 225] | 0.1 to 10 | 0.1 to 10 | 0.1 to 10
16 | C[C@H](CO)Nc1nc(-c2ccc(Cl)c(Cl)c2)c2c(N)c(C(N)=O)sc2n1 [Example 201] |  | 0.1 to 10 | 10 to 20
17 | NC(=O)c1sc2nc(NC(CO)CO)nc(-c3ccc(Cl)c(Cl)c3)c2c1N [Example 204] | 0.1 to 10 | 10 to 20 | 20 to 30
18 | CCOc1cncc(-c2nc(NC(C)(C)CO)nc3sc(C(N)=O)c(N)c23)c1 [Example 172] | 30 to 60 | > 60 | > 60
19 | CC(C)(CN)Nc1nc(-c2cccc(NC(=O)Nc3ccc(C(F)(F)F)cc3)c2)c2c(N)c(C(N)=O)sc2n1 [Example 282] | 0.1 to 10 | 10 to 20 | 10 to 20
20 | CNCCNc1nc(-c2ccc(Cl)c(Cl)c2)c2c(N)c(C(N)=O)sc2n1 [Example 218] | 0.1 to 10 | 30 to 60 | 10 to 20
21 | CC[C@@H](CO)Nc1nc(-c2cc(O)cc(Cl)c2)c2c(N)c(C(N)=O)sc2n1 [Example 191] | 0.1 to 10 | 0.1 to 10 | 0.1 to 10

Row | Compound | IC50 (V600E mutant B-RAF) [µM] | IC50 (pMEK1/2 in A375 cells) [µM] | IC50 (A375 cells) [µM]
22 | COCCNc1nc(-c2ccc(Cl)c(Cl)c2)c2c(N)c(C(N)=O)sc2n1 [Example 219] | 0.1 to 10 | > 60 | > 60
23 | NC(=O)c1sc2nc(NC3CC3)nc(-c3cccc(NC(=O)Nc4ccccc4)c3)c2c1N [Example 248] |  | 10 to 20 | 10 to 20
24 | NC(=O)c1sc2nc(N[C@H]3CCOC3)nc(-c3ccc(Cl)c(Cl)c3)c2c1N [Example 228] | 0.1 to 10 | 0.1 to 10 | 10 to 20
25 | CC(C)(CO)Nc1nc(-c2cc(O)c(Cl)c(Cl)c2)c2c(N)c(C(N)=O)sc2n1 [Example 264] | 0.1 to 10 | 0.1 to 10 | 0.1 to 10
26 | Cc1ccc(-c2nc(NC3CC3)nc3sc(C(N)=O)c(N)c23)cc1C [Example 188] | 0.1 to 10 | 0.1 to 10 | 10 to 20
27 | CC[C@H](CO)Nc1nc(-c2cc(O)cc(Cl)c2)c2c(N)c(C(N)=O)sc2n1 [Example 192] | 0.1 to 10 | 0.1 to 10 | 0.1 to 10
28 | NC(=O)c1sc2nc(NC3CC3)nc(-c3cccc(O)c3F)c2c1N [Example 232] |  | 0.1 to 10 | 0.1 to 10
29 | Cc1nc(-c2ccc(Cl)c(Cl)c2)c2c(N)c(C(N)=O)sc2n1 [Example 270] | 0.1 to 10 | 20 to 30 | 0.1 to 10
30 | C[C@@H](CO)Nc1nc(-c2ccc(Cl)c(Cl)c2)c2c(N)c(C(N)=O)sc2n1 [Example 200] |  | 0.1 to 10 | 10 to 20
31 | COc1cncc(-c2nc(NC(C)(C)CO)nc3sc(C(N)=O)c(N)c23)c1 [Example 173] |  | 0.1 to 10 | 0.1 to 10
32 | CC(C)(CO)Nc1nc(-c2cccc(NC(=O)Nc3ccc(C(F)(F)F)cc3)c2)c2c(N)c(C(N)=O)sc2n1 [Example 257] |  | 0.1 to 10 | 0.1 to 10
33 | CC(C)(CO)Nc1nc(-c2cc(O)cc(Cl)c2)c2c(N)c(C(N)=O)sc2n1 [Example 190] |  | 0.1 to 10 | 0.1 to 10
34 | COc1cncc(-c2nc(N[C@H](C)CO)nc3sc(C(N)=O)c(N)c23)c1 [Example 176] |  | 0.1 to 10 | 0.1 to 10
35 | Cc1ccc(NC(=O)Nc2cccc(-c3nc(NC4CC4)nc4sc(C(N)=O)c(N)c34)c2)cc1 [Example 251] |  | 0.1 to 10 | 0.1 to 10
36 | C[C@H](CO)Cc1nc(-c2ccc(Cl)c(Cl)c2)c2c(N)c(C(N)=O)sc2n1 [Example 163] |  | 10 to 20 | 30 to 60
37 | COc1cncc(-c2nc(NC3CC3)nc3sc(C(N)=O)c(N)c23)c1 [Example 165] |  | 0.1 to 10 | 0.1 to 10
38 | CC(C)(CO)Nc1nc(-c2ccc(Cl)c(Cl)c2)c2c(N)c(C(N)=O)sc2n1 [Example 203] |  | 0.1 to 10 | 10 to 20
39 | NC(=O)c1sc2ncnc(-c3ccc(Cl)c(Cl)c3)c2c1N [Example 269] |  | > 60 | > 60
40 | C[C@H](CO)Oc1nc(-c2ccc(Cl)c(Cl)c2)c2c(N)c(C(N)=O)sc2n1 [Example 212] |  | 0.1 to 10 | 10 to 20
41 | NC(=O)c1sc2ncnc(-c3cccc(NC(=O)Nc4ccc(C(F)(F)F)cc4)c3)c2c1N [Example 262] |  | 0.1 to 10 | 0.1 to 10
